Measured values published in ChEMBL document CHEMBL3507680, “University of Dundee, Gates Library screen for HepG2 cell viability”.

Assay: Human HepG2 cell viability assay in 384 well format
Assay type: toxicity, cell-based
Set-up: dose 125 nL, time 70.5 hour; concentration not given beside the values
Conditions: HepG2 cells, read-out: Inhibition

Row | SMILES | cytotoxicity at 70.5 h [%]
1 | Cc1noc(NCc2cn(C)nc2-c2cccnc2)n1 | -12.1
2 | Cc1cc(N2CCC(c3n[nH]c4nccnc34)CC2)ncn1 | 19
3 | NC(=O)CC1CCN(CC(O)c2ccc(Br)cc2)CC1 (configuration not stated) | -6.64
4 | Cc1ccc(CN(C)Cc2ncc(C(C)(C)C)o2)o1 | 0.445
5 | CN1C(=O)CC(c2ccncc2)C12CCN(c1ncccn1)CC2 (configuration not stated) | -0.583
6 | O=C([C@@H]1CC[C@@H]2[C@@H](CCN2Cc2ccoc2)O1)N1CCCC1 | -11.4
7 | Cc1ncccc1C(=O)NCc1ccccc1CN(C)Cc1ccco1 | -1.05
8 | COc1cc(C)c2c(c1C)C[C@H]([C@H](C)C(=O)O)CC2 | -3.45
9 | O=C(c1ccnnc1)N1CCN2C[C@H](OCc3cccnc3)C[C@H]2C1 | -8.22
10 | CN1CC(=O)N(c2cccc(F)c2)CC12CCN(S(=O)(=O)C1CC1)C2 (configuration not stated) | -2.84
11 | CCC(NS(C)(=O)=O)c1ccccc1C (configuration not stated) | 10.1
12 | O=C(c1ccc(F)cc1)N1CCN2C[C@H](OCc3ccccn3)C[C@H]2C1 | -6.75
13 | Nc1nc2c(c(NCc3ccc(C(=O)N4CCCC4)cc3)n1)CCCC2 | 2.85
14 | CCn1cc(C(=O)n2nc(C)cc2C)c(S(=O)(=O)N2CCCCC2)n1 | -3.56
15 | CC1=N[C@@]2(CC[C@@H]3CN(C(=O)NCC(C)C)C[C@@H]32)C(=O)N1C | -0.53
16 | O=C1COc2c(cccc2C(=O)N2CCCC(n3cccn3)C2)N1 (configuration not stated) | 23.6
17 | O=C(c1ccnnc1)N1C[C@H](Oc2cccnc2)[C@H]2OCCC[C@H]21 | 3.85
18 | Cc1cc(C)c(CNC(=O)N2CCCC2c2ccccc2)c(=O)[nH]1 (configuration not stated) | 2.02
19 | CCn1nc2c(cc1=O)CN(Cc1nnc(C3CC3)o1)CC2 | 2.46
20 | Cn1cc(CCNC(=O)NC2CCN(Cc3ccccn3)CC2)cn1 | 31.9
21 | CCc1n[nH]c(C2CN(C(=O)c3cnns3)CCO2)n1 (configuration not stated) | 2.09
22 | Cc1csc(CNC(=O)NCC(O)c2ccc(F)cc2)n1 (configuration not stated) | -12.5
23 | CC(C)(NS(C)(=O)=O)C(=O)NCCc1csc2ccccc12 | 4.98

Row | SMILES | cytotoxicity at 70.5 h [%]
24 | COc1ccc(-c2nc(CN(C)Cc3nncn3C)c(C)o2)c(C)c1C | 5.19
25 | COc1ccc(OC)c(Sc2ncccc2C(=O)N(C)CCC#N)c1 | 5.96
26 | COC1CCN(C(=O)CCn2ccc(=O)[nH]c2=O)CC1 | 8.52
27 | Cn1c(=O)c2cc(C(=O)NCCOc3ccccc3)ccc2n(C)c1=O | 24.3
28 | c1nc(N2CCc3nc[nH]c3C2)c2cc[nH]c2n1 | 2.38
29 | CN(CCC#N)C(=O)CCOc1cccc(F)c1 | 13
30 | CN(Cc1ccncc1)C1CC2(CCN(c3ncc(F)cn3)CC2)C1 | 2.52
31 | CCn1cncc1CN1CCN(CC2(c3ccc(C)cc3)CC2)CC1 | 12
32 | Cc1nc(CN2CCc3ncnc(C4CCOC4)c3CC2)cs1 (configuration not stated) | 0.032
33 | Cc1nc(CN2CCC(C(=O)O)(n3ccc(-c4ccco4)n3)CC2)co1 | -7.1
34 | O=C(c1ccncc1Cl)N1CCN(Cc2ccco2)C(CCO)C1 (configuration not stated) | 16.2
35 | N#Cc1ccsc1NC(=O)CN1CCOC(Cn2cccn2)C1 (configuration not stated) | 11
36 | C[C@@H]1C[C@H]2CN(S(=O)(=O)c3ccc(F)cc3)C[C@H]2O1 | -4.41
37 | Cc1ccc2nc(CN3CCN(C4CCCCC4)C(=O)C3)cc(O)c2c1 | -0.969
38 | Cc1ccc2c(c1C)OCC2NCc1cccc(C#N)c1 (configuration not stated) | 1.34
39 | CN(Cc1csc(-c2cnn(C)c2)n1)CC1CCN(CCO)CC1 | 18.5
40 | COc1ccc(CNC(=O)N2CCN(C)[C@@H]3CS(=O)(=O)C[C@@H]32)cc1 | -1.34
41 | O=C(Nc1nccs1)C1CCN(Cc2cccc3c2OCCO3)CC1 | 6.98
42 | Cc1nc(C)n(C2CCCN(C(=O)c3ccc(NC4CC4)nc3)C2)n1 (configuration not stated) | -6.49
43 | CS(=O)(=O)NCC1CCCCN1C(=O)c1csc(-c2ccsc2)n1 (configuration not stated) | 0.102
44 | CCC(C)N(Cc1c[nH]c(C)n1)Cc1ccccc1Cl (configuration not stated) | -8.23
45 | O=C(O)c1cc2c(nc1N1CCCC1)CCN(C1CCOCC1)CC2 | 12
46 | COCC(=O)N1CCN(Cc2csc(-c3ncccn3)n2)CC1 | -2.92

Row | SMILES | cytotoxicity at 70.5 h [%]
47 | CN1CCC(C2CCN(Cc3cccc(-n4cccn4)c3)CC2)C1 (configuration not stated) | 2.02
48 | Cc1ccc(C(C)(O)CNC(=O)c2sccc2OC(F)F)o1 (configuration not stated) | -12
49 | O=C(C1CCC1)N1C[C@@H]2CC[C@H](C1)N(S(=O)(=O)c1ccccc1)C2 | -8.37
50 | O=C(CN(C1=NCCCC1)c1ccccc1)c1ccc2c(c1)OCCO2 | -16.3
51 | Cc1nn(C)c(N(C)C)c1CNCc1ccnc(N2CCOCC2)c1 | -5.46
52 | COCCNC(=O)C[C@@H]1COC[C@H]2CN(C(=O)COC)C[C@@H]12 | -8.18
53 | O=C(CN1C(=O)CCC1=O)N1CCOCC1 | 48.6
54 | CN(C)C(=O)c1cc(-c2ccc(S(C)(=O)=O)cc2)c2cnn(C)c2n1 | -7.12
55 | CCN(CCC(=O)OC)S(=O)(=O)c1cnc2c(c1)c(C)nn2C | -4.3
56 | O=C(CCNC(=O)c1ccoc1)Nc1cc(F)ccc1F | -5.4
57 | CS(=O)(=O)c1cccc(C(=O)N2CCCC(n3cccn3)C2)c1 (configuration not stated) | 2.98
58 | CN(Cc1cccc2cccnc12)C1CCS(=O)(=O)C1 (configuration not stated) | 24.2
59 | CNS(=O)(=O)CCCN1CCN(C(C#N)c2ccccc2)CC1 (configuration not stated) | -11.2
60 | Cc1nc(N2CCN(C(=O)c3ccc(O)cc3)CC2)c2cnn(C)c2n1 | -18.5
61 | COc1ccccc1C(CNC(=O)NCc1cc[nH]n1)N1CCCC1 (configuration not stated) | 12.7
62 | Cc1cnn(CC2CCCN2Cc2coc(-c3cccc(F)c3)n2)c1 (configuration not stated) | -113
63 | CCc1ncnc2c1CCN(Cc1ccc3c(c1)OCO3)CC2 | 4.52
64 | O=C(c1cncs1)N1CCC(c2cnccn2)CC1 | -8.41
65 | CS(=O)(=O)CCNC1CCCN(Cc2noc(C3CC3)n2)C1 (configuration not stated) | -13.7
66 | CC(C)c1cc(C2CCCN2C(=O)CN2C(=O)OC(C)(C)C2=O)no1 (configuration not stated) | -9.43
67 | Cc1ccc(NC2CCN(C(=O)c3cc(C)sc3C)CC2)nn1 | -11.8
68 | CN1CCC(N2CCOC[C@H](OCC(=O)N(C)C)C2)CC1 | 0.483
69 | COc1cc2c(cc1CNC(Cc1cccs1)c1nccs1)OCO2 (configuration not stated) | 18.9

Row | SMILES | cytotoxicity at 70.5 h [%]
70 | O=C(NC1CCCN(c2ccccc2Cl)C1)c1c[nH]nn1 (configuration not stated) | -10.1
71 | Cc1ccc(CNC(=O)CN2CCCCC2Cn2cncn2)s1 (configuration not stated) | -7.67
72 | Nc1cc(N2CCC(c3cc(Cc4ccccc4)n[nH]3)CC2)ccn1 | 2.05
73 | CCn1cc(CN2CCC(CNC(C)=O)CC2)cc1C#N | 0.676
74 | CN(Cc1cccnc1)C[C@H]1OC[C@@H]2CCN(c3ncccn3)C[C@@H]21 | -0.858
75 | Cc1nn(C)c(C)c1CC(=O)N1CCCC(n2ccnc2)C1 (configuration not stated) | -3.37
76 | Clc1ccc(OCCCN2CCOC(Cn3cncn3)C2)cc1 (configuration not stated) | 24.6
77 | COc1cc(C)c(S(=O)(=O)NCc2cccnc2N(C)C)c(C)c1 | -5.54
78 | COc1ccc(CN2Cc3nnn(C)c3C(COCCN(C)C)C2)cc1 (configuration not stated) | 4.07
79 | O=C(N1CCSCC1)C1(O)Cc2ccccc2C1 | -2.54
80 | O=C(NCc1nn(-c2ccccc2)c2c1CCC2)N1CCSCC1 | 32.7
81 | NS(=O)(=O)Cc1ccc(CNC(=O)NCC2CCOC2)cc1 (configuration not stated) | -15.3
82 | Cc1nc(C)n(CC2CCCN2CCc2ccncc2)n1 (configuration not stated) | 18.1
83 | NS(=O)(=O)CCN1CCN(c2ccccc2O)CC1 | -0.407
84 | Cc1cc(C)n(CC2CCCN2Cc2ncc(C(C)(C)C)o2)n1 (configuration not stated) | -5.22
85 | O=C(NCCCn1ccnn1)C1CCCN(C2CCCC2)C1 (configuration not stated) | -1.79
86 | O=C1[C@H]2CN(Cc3ccccn3)C[C@H]2CN1c1ccsc1 | -6.18
87 | O=C(Cc1ccc2c(c1)CCO2)N1CCN(c2cnccn2)CC1 | 23.2
88 | CC(=O)c1ccc(C(=O)NCC2Cc3ccccc3O2)s1 (configuration not stated) | 23.7
89 | COCC1c2c(cnn2CC2CC2)CCN1Cc1ccc(C)o1 (configuration not stated) | -8.01
90 | Cc1nc(C(NS(=O)(=O)N(C)C)c2ccccc2F)no1 (configuration not stated) | -2.92
91 | Fc1ccc(CNCC2Cn3nncc3CO2)cc1 (configuration not stated) | -7.4
92 | Cc1nc(CN(C)C2CCN(CCCOc3ccccc3)C2)no1 (configuration not stated) | 39.5

Row | SMILES | cytotoxicity at 70.5 h [%]
93 | CNS(=O)(=O)c1ccc(C(=O)N2CCCC2c2cnn(C)c2)o1 (configuration not stated) | 23
94 | N#CCCN(CC1CCOC1)Cn1ccc(-c2ccccc2)n1 (configuration not stated) | -0.616
95 | O=C(c1ccc(-n2cccc2)c(F)c1)N1CCCN2CCCC2C1 (configuration not stated) | 8.53
96 | Cc1cc(C)cc(OCC(=O)N2CCC2)c1 | -22.1
97 | CN(C)C(=O)c1cn2cc(-c3ccccc3Cl)n(CC3CC3)c(=O)c2n1 | -3.22
98 | c1cncc(COCC2CC[C@H]3[C@H](CCN3CC3CCOCC3)O2)c1 (some centres not stated) | 24.3
99 | CCN(Cc1ccoc1)C(=O)c1ccncc1O | -9.48
100 | O=C(c1ccncc1F)N1C[C@@H]2OCCN(CC3CC3)[C@@H]2C1 | -12.9
101 | COc1ccc(C(=O)N2C[C@@H](O)[C@H](NCc3ncccc3C)C2)cc1 | -8.03
102 | Cc1cccc(COC[C@H]2CC[C@H]3[C@H](CCN3C(=O)CC3CC3)O2)n1 | -6.89
103 | Cc1nc(CNC(=O)NCc2cccnc2N(C)C)cs1 | -5.06
104 | Cc1ccccc1CN1CCC[C@H]1c1nc(-c2cncnc2N)no1 | -3.84
105 | CC(NC(=O)N1CCS(=O)(=O)CC1)c1ccc(F)cc1Cl (configuration not stated) | -1.2
106 | CC(C)OCc1cccc(NC(=O)N2CCCC(CCC(N)=O)C2)c1 (configuration not stated) | 6.13
107 | O=C(c1ccoc1)N1CCC2(C1)CN(c1ncccn1)C2 | 0.524
108 | CCc1nc(CCNS(=O)(=O)c2cccc(C(=O)N(C)CC)c2)cs1 | -16
109 | CCn1c(=O)nc2n1C(=O)N(c1cccc(Cl)c1)C2 | -1.37
110 | CCC(O)CN(c1ccccc1)S(=O)(=O)c1cnc(C)s1 (configuration not stated) | 18.5
111 | COc1ccc(OC)c(CCNC(=O)CCC2CCCO2)c1 (configuration not stated) | -10
112 | Cc1cnc(CN(Cc2ccc(C#N)cc2F)C2CCN(C)C2)o1 (configuration not stated) | -8.53
